The nature of one data set: pKa. The following applies: two values given. In kind it is physicochemical.
Another data set deals with NO3 Reductase. Briefly: Nitrate reductase activity in extracts of treated corn root sections. In kind it is cell-based, Corn (Pioneer Hybrid 3320). Conditions: 50 ppm test compound. Here is the method: (§1) Corn (Pioneer Hybrid 3320), wheat (Arther), sorghum (SC-599-6), barley (CM-721), rice (m101), and cotton (Tamcot SP-37) seeds were disinfected with a 1% sodium hypochlorite solution and placed in 20.3 cm×30.5 cm×5.1 cm Pyrex glass utility trays which were lined with 4 layers of bleached paper towels and irrigated with 150 mL of 0.2 mM CaCl2 solution. The trays were covered with plastic food wrap, perforated to permit air exchange, and placed in a dark growth room which was maintained at 30° and 90% relative humidity. About 48 hours later, another 150 mL of 0.2 mM CaCl2 solution was added to each tray to maintain water sauration of the paper towels.
(§2) Two centimeter root sections were cut 0.5 to 2.5 cm from the tip of 3-day-old etiolated seedling roots. Batches of 20 (for corn and cotton), or 40 (for wheat, barley and rice) root sections were tied in cheesecloth bags, leaving a 20-30 cm length of string to facilitate movement between test solutions. Root tissue was washed at 30±1° by immersing the cheesecloth bags in a well-aerated 0.2 mM K2 HPO4 /KH2 PO4 solution, pH 6.0, for 4 hours. During the last 30 minutes of this washing period, 1 mM potassium nitrate solution was introduced to induce nitrate reductase activity. For uniformity, 100 mL washing solution was used for every bag of root sections (about 300 mg fresh tissue).
Nitrate ion uptake into corn roots was also determined by homogenizing root segments previously exposed to the nitrate absorption solution (without added ^36 ClO3⊖) with a precooled glass homogenizer in 5 mL of cold extraction medium. This medium contained 23 mM phosphate buffer pH 8.8, 5 mM cysteine, 2.5 mM EDTA, and 0.1% Neutronyx 600 (Onyx Chemical Co., Jersey City, N.J.). The resulting homogenate was centrifuged at 30,000 xg for 15 minutes, and an aliquot of the resulting supernatant solution reserved for nitrate ion determination, using an Orion nitrate ion specific electrode. […]
Nitrate reductase activity was determined using a modification of the procedure of Hageman and Huckles- by, Methods Enzymol. […]

Data set [1] relates to corn root sections. In words: Ammonium ion uptake by corn root sections (ammonium ion-specific electrode). In kind it is cell-based, Corn (Pioneer Hybrid 3320). The following applies: 50 ppm test compound. The method, then: as §1
Two centimeter root sections were cut 0.5 to 2.5 cm from the tip of 3-day-old etiolated seedling roots. Batches of 20 (for corn and cotton), or 40 (for wheat, barley and rice) root sections were tied in cheesecloth bags, leaving a 20-30 cm length of string to facilitate movement between test solutions. Root tissue was washed at 30±1° by immersing the cheesecloth bags in a well-aerated 0.2 mM K2 HPO4 /KH2 PO4 solution, pH 6.0, for 4 hours. […]
Ammonium ion uptake was determined by measuring the disappearance of ammonium ion from an uptake solution containing 1 mmol ammonium chloride, 0.2 mM calcium chloride and 5 mM MES buffer, pH 6.0, with an Orion ammonium ion-specific electrode. […]

In data set [2] the test system is corn root sections. Briefly: Nitrate ion uptake by corn root sections measured with radioactive chlorate ion (36ClO3-) as mimic. The class given is cell-based, Corn (Pioneer Hybrid 3320). The following applies: 50 ppm test compound; for activation at 50 ppm: Zea mays, read-out: Ion Uptake (percent increase over control) 36ClO3-. The method, then: as §1, §2
Nitrate ion uptake was measured using radioactive chlorate ion (^36 ClO3⊖) as a mimic for nitrate ion (Deane-Drummond et al., Plant Physiol. 70:50-54 (1982)). Uptake was measured by incubating 20 or 40 cheesecloth-bound washed root segments for 30 minutes in 100 mL absorption solution. The absorption solution contained 0.5 mM potassium nitrate, 0.2 mM calcium chloride, 5 mM MES buffer, and 5 mg/L sodium molybdate. This solution was adjusted to pH 6 with potassium hydroxide, and labeled with 10,000 cpm/ml of carrier-free radioactive chlorate ion. Absorption temperatures was maintained at 30±1° in a water bath, and moderate aeration was provided. All test compounds were added to the absorption solution. After the absorption period, the cheesecloth bag containing root sections was rinsed with distilled water for 10 seconds and then immersed in 100 mL of ice-cold, aerated 0.2 mM calcium chloride solution for 20 minutes to remove exchangeable components of absorbed ^36 ClO3⊖. Root sections were then removed from the cheesecloth bags, blotted dry, placed in a preweighed scintillation vial, and weighed to determine fresh tissue weight. One mL water and 10 mL Scinti Verse I (Fisher Scientific Co.) scintillation fluid were added, and radioactivity determined by scintillation counting. The rate of nitrate (^36 ClO3⊖) uptake in micromols per gram fresh weight of tissue per hour was calculated.
(§3) Test compounds are identified in Table I by Example number, and by the identity of substituents X, Y, Z and R in the following formula: [drawing 23]

For data set [3], the system named is corn root sections. Briefly: Nitrate ion uptake by corn root sections (nitrate ion specific electrode). The class given is cell-based, Corn (Pioneer Hybrid 3320). Conditions: for Ion Uptake (percent increase over control) NO3-: 50 ppm test compound, corn root sections. Here is the method:
as §1, §2
Nitrate ion uptake into corn roots was also determined by homogenizing root segments previously exposed to the nitrate absorption solution (without added ^36 ClO3⊖) with a precooled glass homogenizer in 5 mL of cold extraction medium. This medium contained 23 mM phosphate buffer pH 8.8, 5 mM cysteine, 2.5 mM EDTA, and 0.1% Neutronyx 600 (Onyx Chemical Co., Jersey City, N.J.). The resulting homogenate was centrifuged at 30,000 xg for 15 minutes, and an aliquot of the resulting supernatant solution reserved for nitrate ion determination, using an Orion nitrate ion specific electrode. The same tissue extract was used for nitrate reductase activity determination (below).
as §3

In another data set the test system is barley root sections. In words: Nitrate ion uptake by plant root sections, barley. In kind it is cell-based, barley (CM-721). The method, then:
as §1
(§4) Two centimeter root sections were cut 0.5 to 2.5 cm from the tip of 3-day-old etiolated seedling roots. […]
(§5) Nitrate ion uptake was measured using radioactive chlorate ion (^36 ClO3⊖) as a mimic for nitrate ion (Deane-Drummond et al., Plant Physiol. 70:50-54 (1982)). Uptake was measured by incubating 20 or 40 cheesecloth-bound washed root segments for 30 minutes in 100 mL absorption solution. […] One mL water and 10 mL Scinti Verse I (Fisher Scientific Co.) scintillation fluid were added, and radioactivity determined by scintillation counting. The rate of nitrate (^36 ClO3⊖) uptake in micromols per gram fresh weight of tissue per hour was calculated.

The next data set relates to wheat root sections. Briefly: Nitrate ion uptake by plant root sections, wheat. In kind it is cell-based, wheat (Arther). Here is the method:
as §1, §4, §5

A further data set relates to rice root sections. Briefly: Nitrate ion uptake by plant root sections, rice. In kind it is cell-based, rice (m101). Here is the method: as §1, §4, §5
A further data set concerns sorghum root sections. In words: Nitrate ion uptake by plant root sections, sorghum. In kind it is cell-based, sorghum (SC-599-6). The method, then: as §1, §4, §5
In the next data set the test system is cotton root sections. In words: Nitrate ion uptake by plant root sections, cotton. In kind it is cell-based, cotton (Tamcot SP-37). The method, then: as §1, §4, §5
In a further data set the test system is corn plants. Briefly: Field test, grain yield of nitrogen-stressed corn. In kind it is in vivo, corn (Pioneer Hybrid 3535). The method, then: Field tests were conducted by seeding corn (Pioneer Hybrid 3535) at a rate sufficient to obtain an excess plant population. The resulting population was thinned after emergence, 14 days after planting, to a density of about 64,000 plants per hectare, with plants about 20 cm apart in each row. The test population was subjected to severe nitrogen stress during development because only 67 kg nitrogen/hectare (60 lb/acre) were applied at planting. Nitrogen stress symptoms were apparent on lower plant leaves 32 days after emergence. Test compounds were applied to plants 34 days after emergence and 26 days prior to anthesis. Average canopy height at time of treatment was 85 cm. The treatments were applied from an acetone/water (1:3) solution with 0.2% added nonionic surfactant, using a hand-held nitrogen-pressurized sprayer. One day following treatment, an application of about 34 kg/ha (30 lb/acre) ammonium nitrate was broadcast on the ground and immediately worked into the root zone by irrigation.

Molecules are shown by their SMILES. Values joined by “and” are separate entries in the source; they are usually repeats but may differ in a detail not shown here. Equal values may be shown once.

We go through 16 molecules from patent US4511390A, “Aralkylcarbamoyl peptide alcohols” (E. I. Du Pont de Nemours and Company, priority 1983, dated 1985).

With `O=C(O)[C@H]1COCN1C(=O)OCc1ccccc1` [3-Carbobenzoxy oxazolidine-4R-carboxylic acid], the pKa (commonly the negative logarithm of the acid dissociation constant) in the data set “pKa” was 3.80 and 3.90.

`O=C(O)[C@@H]1COCN1C(=O)OCc1ccccc1` [3-Carbobenzoxyoxazolidine-4S-carboxylic acid]: the pKa in “pKa” is 4.35 and 4.30.

For `C[C@H]1OCN(C(=O)OCc2ccccc2)[C@@H]1C(=O)O` [3-carbobenzoxy-5R-methyloxazolidine-4S-carboxylic acid], the pKa in “pKa” was 4.65 and 4.60.

As to `CC(C)[C@@H](CO)NC(=O)[C@@H]1CCCN1C(=O)OCc1ccccc1` [Example 2, N-Carbobenzoxy-L-prolyl-L-valinol], in the data set on NO3 Reductase, the “NO3- Reductase (percent increase over control)” value is reported as 7%. In addition, in the data set on corn root sections [1], the “Ion Uptake (percent increase over control) NH4+” value came to 100%. In addition, in the data set on corn root sections [2], the activation at 50 ppm stood at 56%. Further, the “Ion Uptake (percent increase over control) NO3-” value with corn root sections [3] worked out at 65%. Also, the “Nitrate Ion Uptake (percent increase over control)” value in the data set on corn root sections [3] (Corn root sections, 50 ppm) was 65%; in the data set on barley root sections (Barley root sections, 50 ppm), 75%; in the data set with wheat root sections (Wheat root sections, 50 ppm), 55%; with rice root sections (Rice root sections, 50 ppm), 10%; with sorghum root sections (Sorghum root sections, 50 ppm) it was -5%; in the data set with cotton root sections (Cotton root sections, 50 ppm) it was -10%. In addition, the “Nitrate ion uptake enhancement, in words” value with corn root sections [3] (corn) is “Significant stimulation”; in the data set with barley root sections (barley), “Significant stimulation”; in the data set on wheat root sections (wheat), “Significant stimulation”; in the data set with rice root sections (rice root tissues), “insensitive”; with sorghum root sections (sorghum root tissues), “insensitive”; with cotton root sections (cotton root tissues) it was “insensitive”. Besides, the “Optimal media concentration for stimulation of nitrate ion uptake” value with corn root sections [3] (immersed corn root sections, varying test concentrations) is given as “about 50 ppm”. In addition, the “Grain yield (average)” value with corn plants (second round of field tests, 0.035, 0.07 and 0.14 kg/ha, controls average 321) worked out at 348 bushels/ha. Besides, the “Increase in grain yield” value in the data set on corn plants (second round of field tests, application rates 0.035, 0.07 and 0.14 kg/ha, all three) was 8-10%; in the data set with corn plants (sprayed with 500 ppm (0.14 kg/ha), field grown corn, p=0.05, vs. control) it was 6.3%. The molecule also gave a Grain yield in the data set with corn plants (sprayed with 500 ppm (0.14 kg/ha), field grown corn, control 232) of 248 bushels/ha.

Take `O=C(NCCO)[C@@H]1CCCN1C(=O)OCc1ccccc1` [Example 4, N-Carbobenzoxy-L-prolyl-(β-hydroxyethyl)amide]: the “NO3- Reductase (percent increase over control)” value in the data set with NO3 Reductase was 4%. Also, the “Ion Uptake (percent increase over control) 36ClO3-” value in the data set with corn root sections [2] is 24%. Further, the “Ion Uptake (percent increase over control) NO3-” value in the data set with corn root sections [3] is given as 30%.

Regarding `C[C@@H](CO)NC(=O)[C@@H]1CCCN1C(=O)OCc1ccccc1` [Example 5, N-Carbobenzoxy-L-prolyl-L-alaninol], in the data set with corn root sections [2], the activation at 50 ppm was determined as 20%.

For the molecule `CC[C@@H](CO)NC(=O)[C@@H]1CCCN1C(=O)OCc1ccccc1` [Example 6, N-Carbobenzoxy-L-prolyl-L-homoalaninol], the activation at 50 ppm in the data set on corn root sections [2] is 20%. The “Ion Uptake (percent increase over control) NO3-” value in the data set on corn root sections [3] is reported as 24%.

Regarding `CC[C@H](CO)NC(=O)[C@@H]1CCCN1C(=O)OCc1ccccc1` [Example 7, N-Carbobenzoxy-L-prolyl-D-homoalaninol], the activation at 50 ppm in the data set on corn root sections [2] is 40%. Besides, in the data set with corn root sections [3], the “Ion Uptake (percent increase over control) NO3-” value was found to be 41%.

Consider `CC(C)[C@H](CO)NC(=O)[C@@H]1CCCN1C(=O)OCc1ccccc1` [Example 8, N-Carbobenzoxy-L-prolyl-D-Valinol], for which the activation at 50 ppm in the data set on corn root sections [2] was determined as 12%.

In the case of `CC(C)[C@@H](CO)NC(=O)[C@H]1CCCN1C(=O)OCc1ccccc1` [Example 9, N-Carbobenzoxy-D-prolyl-L-valinol], the activation at 50 ppm in the data set with corn root sections [2] was found to be 37%.

Consider `CC(C)[C@H](CO)NC(=O)[C@H]1CCCN1C(=O)OCc1ccccc1` [Example 10, N-Carbobenzoxy-D-prolyl-D-valinol], for which the activation at 50 ppm in the data set on corn root sections [2] was 41%. Further, the “Ion Uptake (percent increase over control) NO3-” value in the data set on corn root sections [3] came out at 36%.

For the molecule `CC(C)[C@@H](CO)NC(=O)[C@@H]1COCN1C(=O)OCc1ccccc1` [Example 12, N-Carbobenzoxy-L-γ-oxaprolyl-L-valinol], in the data set on corn root sections [2], the “Ion Uptake (percent increase over control) 36ClO3-” value is on record as 18%.

With `CC(C)[C@@H](CO)NC(=O)[C@@H]1[C@@H](C)OCN1C(=O)OCc1ccccc1` [Example 13, N-Carbobenzoxy-5R-methyloxazolidine-4S-carbonyl-L-valinol], the “Ion Uptake (percent increase over control) 36ClO3-” value in the data set on corn root sections [2] amounted to 20%.

Regarding `CC(C)[C@@H](CO)NC(=O)[C@@H]1CCCN1C(=O)OCc1ccc(F)cc1` [Example 15, N-(4-Fluorobenzyloxycarbonyl)-L-prolyl-L-valinol], the activation at 50 ppm in the data set on corn root sections [2] was 35%. Further, the “Ion Uptake (percent increase over control) NO3-” value in the data set on corn root sections [3] amounted to 30%.

Consider `CC(C)[C@@H](CO)NC(=O)[C@@H]1CCCN1C(=O)OCc1ccc(Cl)cc1` [Example 16, N-(p-Chlorobenzyloxycarbonyl) -L-prolyl-L-valinol], for which, in the data set with corn root sections [2], the activation at 50 ppm was 14%.

As for `Cc1ccc(COC(=O)N2CCC[C@H]2C(=O)N[C@H](CO)C(C)C)cc1` [Example 17, N-(p-Methylbenzyloxycarbonyl) -L-prolyl-L-valinol], the activation at 50 ppm in the data set with corn root sections [2] was determined as 35%. In addition, the “Ion Uptake (percent increase over control) NO3-” value in the data set with corn root sections [3] worked out at 39%.
